# Test results taken from article PMC6459484, “Synthetic surfactin analogues have improved anti-PEDV properties” (PLoS ONE, 2019).
# Square brackets hold non-standard residues; d marks the D form. Peptide text beside a SMILES is read from it. * marks the point of attachment. Palmitoyl = CCCCCCCCCCCCCCCC(=O)*
# Key:
# PEDV CV777 = assay: Plaque reduction assay (anti-PEDV activity); type: cell-based, Porcine epidemic diarrhea virus
# Procedure: Cercopithecus aethiops kidney epithelial cells (Vero, ATCC, CCL-81) were cultured in high glucose DMEM (Gibco, US), supplemented with 10% fetal bovine serum (FBS, GIBCO), at 37 °C in a 5% CO2 humidified atmosphere. Cells were routinely seeded at a density of 2×10^5 /mL in plastic tissue culture flasks (25 cm^2 flasks, Corning, USA) and passaged every 3–4 days. PEDV CV777 was provided by the Jiangsu Academy of Agricultural Sciences (JAAS).
# Vero cells were seeded at 2 × 10^5 cells/well in 24-well tissue culture plates and incubated 18–24 h at 37 °C until approximately 95% confluency was reached. 100 PFU of PEDV mixed with an equal volume of SLP in DMEM or DMEM alone were incubated 10 minutes at 37 °C, then added into the wells of the Vero cells and incubated 30 minutes at 4 °C. Cells were washed 3 times with DMEM then overlaid with DMEM/1% agar and incubated 72 hours at 37 °C. The cells were fixed with 4% formaldehyde, then stained with 0.1% crystal violet after the agar overlay was removed. The data are representative of 3 biological replicates and each plaque assay was performed in triplicate and values are expressed as means ± the standard deviation. Curve fitting and EC50 were calculated with GraphPad Prism 6 using the log[inhibitor] vs. response equation.
# The SLPs were tested for anti-PEDV activity using a plaque reduction assay. Serial dilutions of SLPs were incubated with an equal volume of PEDV then aliquoted onto precooled cells in 12-well plates. After the virus has adsorbed to the cells at 4 °C, SLPs were washed away. The adsorbed virus particles were then counted by plaque forming assays (Fig 2A). The results were fitted to a sigmoid-curve and plotted Fig 2B. All SLPs have potent anti-PEDV effects above 50 μg/ml, but differences in their anti-PEDV effect.
# Fig 2 Anti-PEDV activities of lipopeptides. (A) PEDV was incubated with series concentrations of SLPs for 10 minutes at 37 °C. After washing cells of unadsorbed virus, the remaining infectious particles was detected by plaque assay. (B) Anti-PEDV activity (% remaining PFU) plotted as a function of lipopeptide concentration. The results of three independent experiments are shown as means ± standard deviation. 100% represents plaque counts in the control (no lipopeptide) sample.
# [1] = HPLC retention time as measure of hydrophobicity; type: physicochemical; conditions: used as indicator of total hydrophobicity, SLP1>SLP2>SLP3
# Excerpt: The cationic properties of synthetic lipopeptides are thought to be related to their antibacterial and hemolytic activities. […] Cyclic lipopeptides are reported to more readily lyse bacterial membranes than linear or branched lipopeptides. […] It has also been reported that the total hydrophobicity of synthetic lipopeptides is inversely related to hemolytic activity, although this conclusion was from data on only 3 related samples [27]. […] The relative hydrophobicity of SLP1, 2, and 3 is SLP1>SLP2>SLP3, as indicated by their HPLC retention times (17.6, 16.7, and 14.5 min, respectively).
# [2] = Critical micelle concentration by surface tension (ring method); type: physicochemical; conditions: samples stood 30 min at 22 °C, intersection of two linear regression lines
# Procedure: Surface tensions were measured using the ring method. Samples were freshly prepared in a testing flask and allowed to stand for 30 minutes at 22 °C. Surface tension measurements were made using a surface tensiometer (HLD-LST-II, HENLIDA Co., Ltd, China). Linear regressions of the drop and the flat area were performed separately for the surface tension-concentration curve. The concentration at the intersection of the two lines is the critical micelle concentration (CMC).
# The CMC was calculated by measuring the surface tension of each SLP over a range of concentrations. […] Linear regressions were performed independently using the data on the descending part of the curve below the CMC and the equilibrium part above the CMC. The intersection of the linear regression lines corresponds to the CMC (Table 3).
# Fig 4 Critical micelle concentrations of the SLPs. CMCs were determined for SDS, surfactin, and SLPs by surface tension. The intersection of the two linear regression lines corresponds to the CMC value, (shown by the dotted lines).
# porcine RBCs = type: cell-based; conditions: for CC50 (50% cytotoxicity concentration, hemolysis): red cells of porcine, 1 h
# Procedure: Hemolytic activity was measured according to the methods described in Jingdan, with some modifications. Briefly, serial dilutions of SLPs were added to 200 uL of a 1% suspension of porcine RBCs in PBS, followed by incubation for 1 h at 37 °C. Cells were centrifuged at 1000 g for 10 min, then 100 uL of each supernatant was transferred to wells of a 96-well plate. The optical density at 540 nm was measured using a microplate reader (Infinite 200 PRO, Tecan Group Ltd., Switzerland) and % hemolysis was calculated using the formula: Hemolysis(%)=ODS-ODB/ODP-ODB×100% where ODS, ODB, and ODP represent the optical density of the SLP-treated samples, negative control and positive control, respectively. 1% Triton X-100 was used for the positive control. Each sample was run in triplicate.
# Fig 3 Hemolytic activity of lipopeptides. (A) The indicated concentration of SLPs were added to a 1% porcine RBC suspension in PBS, followed by incubation for 1 h at 37 °C and centrifugation. Pictures were taken after collecting a portion of the supernatant for quantification of hemolysis. (B) Hemolytic curve. Hemolysis (measured at OD540) is shown as a function of SLP concentration. 100% represents the OD obtained using 0.1% Triton X-100-treated red blood cells.
# PEDV [3] = assay: Time of addition assay (viral N protein by western blot, viral RNA by qRT-PCR); type: cell-based, Porcine epidemic diarrhea virus; conditions: Vero cells, 1000 PFU PEDV, harvested 12 hpi, SLP5 50 μg/ml, surfactin 20 μg/ml
# Procedure: Time of addition assay was performed according to the procedures described, with modifications. Confluent Vero cells in 12-well plates were infected with 1000 PFU of PEDV and incubated for 1 hr at 4 °C to synchronize infection. The inoculum was removed and 1 mL of 37 °C DMEM was added to each well, cells were then placed at 37 °C in a humidified incubator. At the indicated time points, SLP5, surfactin, or dielaidoyl-phosphatidylethanolamine (DEPE, AvantiPolarLipids, Alabaster, AL) was added dropwise to cells or virus to a final concentration of 50 μg/ml, 20 μg/ml, or 5 μg/ml and incubated a further 12 hours at 37 °C. Viral nucleic acid and protein levels in the cells were measured by qRT-PCR and western-blot respectively. The data shown is representative of 3 independent experiments.
# Total RNA was extracted from cells using TRIzol Reagent (Invitrogen) according to the manufacturer’s instructions. cDNA was generated by reverse transcription using HiScript TM QRT SuperMix for qPCR (Vazyme) according to the manufacturer’s instructions. PEDV nucleic acid levels were assessed by measuring the viral nucleoprotein (N) using qRT-PCR with the TaKaRa SYBR Green qPCR Kit (TaKaRa). Primer sequences were as follows: PEDV-N-F (sense), 5’-[…]-3’; PEDV-N-R (antisense), 5’-[…]-3’; C-sabaeus-GAPDH-F, 5’-[…]-3’; C-sabaeus-GAPDH-R, 5’-[…]-3’. Gene level was calculated using the comparative Ct method and normalized to the endogenous levels of GAPDH.
# Boiled cell lysates were subjected to SDS-PAGE then transferred to PVDF membrane (Roche, Basel, Switzerland) using a semi-dry transfer apparatus (GE, Little Chalfont, Buckinghamshire, UK). Membranes were blocked in 5% non-fat milk in TBS containing 0.01% Tween-20 (TBST) then incubated overnight at 4 °C with anti-PEDV N-protein monoclonal antibody (Median Diagnostics, South Korea) diluted in TBST with 1% BSA. Membranes were washed 30 min in TBST followed by incubation for 1 h at RT with 1:5000 HRP goat anti-mouse IgG antibody (ABGENT, San Diego, CA, USA) then thrice washed for 15 min in TBST. Membranes were incubated with ECL reagent (Thermo, Waltham, MA, USA) and imaged using a ChemiDoc™ system (Bio-Rad, Hercules, CA, USA).
# Since SLP5 was the most promising surfactin analogue, we chose it for further study. Time of addition assays were performed to determine whether the SLP5 exerts its anti-PEDV effect at the same stage during infection as surfactin. Since surfactin acts directly on virions, the experiment was designed to examine events early in the infection process. Fig 6A summarizes the experimental plan and the eight treatments tested. Briefly, SLP5, surfactin, or DEPE was added to virus alone, cells alone, or to cells and virus together prior to infection, during virus adsorption, during virus invasion (1 h post infection at 37 °C), or during replication (1–12 hpi). Samples were harvested 12 hours after infection, and analyzed to measure cellular levels of viral protein (Fig 6B and 6C) and viral RNA (Fig 6D). […] Other antiviral mechanisms of SLP5 and surfactin cannot be ruled out since PEDV replication is inhibited to different degrees in some of the other treatment groups.
# Fig 6 Time-of-addition experiments. (A) Vero cells were treated with SLP5, surfactin, or DEPE at different time points before, during, and after infection. […] (B) The PEDV nucleoprotein was detected by Western-blot, and (C) quantitated by band intensity relative to the internal control, GAPDH. (D) The PEDV genome was detected by qRT-PCR. […]
# PEDV [4] = conditions: cited from earlier work
# Excerpt: In summary, we synthesized 10 surfactin analogues and characterized them to identify those with enhanced anti-viral properties. […] SLP5 is therefore a more promising synthetic surfactin analogue. Compared with surfactin, the structure of SLP5 is distinguished by its linear lipopeptide and the additional carboxyl grou ...
# [5] = 100 PFU PEDV pre-incubated with lipopeptide 10 min at 37 °C, adsorbed to Vero cells 30 min at 4 °C, washed, agar overlay 72 h, 3 biological replicates each in triplicate, mean ± SD, log[inhibitor] vs. response fit
Molecule,EC50 (PEDV CV777; 72 h) [µg/mL],HPLC retention time (relative hydrophobicity) [1] [min],CMC [2] [µg/mL],"Hemolytic activity, result in words (porcine RBCs)","CC50 (50% cytotoxicity concentration, hemolysis) (porcine RBCs) [µg/mL]","Anti-PEDV potency compared with surfactin (PEDV CV777; plaque reduction assay, result in words)",EC50 (PEDV CV777; [5]) [µg/mL],"PEDV replication (nucleic acid and protein levels), reagent present throughout the experiment (treatment group 2) or at any stage (PEDV [3]; DEPE 5 μg/ml, 3 independent experiments)","PEDV replication, treatment group 5 (PEDV [3]; same as group 2 (little replication))",Protection of piglets from PEDV challenge (PEDV [4])
CCCCCCCCCCCCCCCC(=O)N[C@@H](CCC(=O)O)C(=O)N[C@H](C(=O)N[C@H](CC(C)C)C(=O)N[C@@H](C)C(=O)N[C@@H](CC(=O)O)C(=O)N[C@H](CC(C)C)C(=O)N[C@H](C(N)=O)C(C)C)C(C)C [SLP1] (Palmitoyl-EV[dL]AD[dL]V-NH2),8.0 ± 0.3,17.6,5.7,slightly weaker than that of surfactin,52.6 ± 2.3,–,–,–,–,–
CCCCCCCCCCCCCCCC(=O)N[C@@H](CCC(=O)O)C(=O)N[C@H](C(=O)N[C@H](CC(C)C)C(=O)N[C@@H](CC(=O)O)C(=O)N[C@H](CC(C)C)C(=O)N[C@H](C(N)=O)C(C)C)C(C)C [SLP2] (Palmitoyl-EV[dL]D[dL]V-NH2),5.3 ± 0.5,16.7,4.2,–,33.0 ± 1.6,higher potency than surfactin,–,–,–,–
CCCCCCCCCCCCCCCC(=O)N[C@@H](CCC(=O)O)C(=O)N[C@H](C(=O)N[C@H](CC(C)C)C(=O)N[C@@H](CC(=O)O)C(=O)N[C@H](CC(C)C)C(N)=O)C(C)C [SLP3] (Palmitoyl-EV[dL]D[dL]-NH2),–,14.5,6.4,–,69.7 ± 2.6,–,16.9 ± 1.6,–,–,–
Surfactin,–,–,12.1,–,–,–,11.4 ± 0.7,little PEDV replication occurs,act directly on the virus,protect piglets from PEDV challenge
